What all share (conditions): Homo sapiens
Experiment [1] concerns SK-OV-3. The experiment can be described thus: In vitro cytotoxic activity against Ovarian (SK-OV3) cell line. The experiment is classed as functional.
The subject of experiment [2] is NCI/ADR-RES. As to the kind of experiment: In vitro cytotoxic activity against ADR resistant breast cancer (MCF-7-ADR) cell line. Format: functional.
The subject of experiment [3] is M14. The experiment can be described thus: In vitro cytotoxic activity against melanoma (M 14) cancer cell line. Format: functional.
Experiment [4] relates to SW-620. As to the kind of experiment: In vitro cytotoxic activity against colon (SW 620) cancer cell line. Format: functional.
Experiment [5] concerns NCI-H522. As to the kind of experiment: In vitro cytotoxic activity against lung (H 522) cancer cell line.
For experiment [6], the system named is DU-145. As to the kind of experiment: In vitro cytotoxic activity against prostate (DU-145) cancer cell line. The experiment is classed as functional.
In experiment [7] the test system is A498. The experiment can be described thus: In vitro cytotoxic activity against renal (A 498) cancer cell line. The experiment is classed as functional.

For `COc1cc([C@@H]2c3cc4c(cc3[C@H](O)[C@H]3COC(OCCF)[C@H]23)OCO4)cc(OC)c1OC` (stereo not given in full), the GI50 in experiment [1] is greater than 100 µM; in experiment [2] it was 50 µM; in experiment [3], 60 µM; in experiment [4] it was 70 µM; in experiment [5], 80 µM; in experiment [6], 80 µM. The compound further showed a GI50 in experiment [7] of 80 µM.
Take `COc1cc([C@@H]2c3cc4c(cc3[C@@H](O)[C@H]3COC(CC(C)=O)[C@@H]23)OCO4)cc(OC)c1O` (stereo not given in full): the GI50 in experiment [1] came out at 0.3 µM; in experiment [2] it was 0.8 µM; in experiment [3], 0.8 µM; in experiment [4], 0.1 µM; in experiment [5], 0.8 µM; in experiment [6], 0.1 µM. The same compound showed a GI50 in experiment [7] of 0.08 µM.
For `COCCOC1OC[C@H]2[C@H]1[C@H](c1cc(OC)c(OC)c(OC)c1)c1cc3c(cc1[C@@H]2O)OCO3` (stereo not given in full), the GI50 in experiment [1] is 20 µM; in experiment [2], greater than 100 µM; in experiment [3] it was greater than 100 µM; in experiment [4] it was 80 µM; in experiment [5] it was 0.09 µM; in experiment [6], 7 µM. In addition, the GI50 in experiment [7] was found to be 0.05 µM.
With `COc1cc([C@@H]2c3cc4c(cc3[C@H](O)[C@H]3COC(CCO)[C@H]23)OCO4)cc(OC)c1OC` (stereo not given in full), the 50% growth inhibitory concentration (GI50) in experiment [1] is 0.8 µM; in experiment [2] it was greater than 100 µM; in experiment [3], greater than 100 µM; in experiment [4] it was greater than 100 µM; in experiment [5], 0.05 µM; in experiment [6] it was 0.5 µM. Further, it took 0.05 µM to inhibit growth in experiment [7] by half (GI50).
For `COC(=O)CC1OC[C@H]2[C@H]1[C@H](c1cc(OC)c(OC)c(OC)c1)c1cc3c(cc1[C@@H]2O)OCO3` (stereo not given in full), the GI50 in experiment [1] was 4 µM; in experiment [2], 70 µM; in experiment [3] it was greater than 100 µM; in experiment [4] it was 70 µM; in experiment [5], 8 µM; in experiment [6], 60 µM. The same compound registered a GI50 in experiment [7] of less than 0.01 µM.
As for `COC(=O)CC1OC[C@H]2[C@H]1[C@H](c1cc(OC)c(O)c(OC)c1)c1cc3c(cc1[C@H]2O)OCO3` (stereo not given in full), the GI50 in experiment [1] was 0.5 µM; in experiment [2] it was 60 µM; in experiment [3], greater than 100 µM; in experiment [4], 20 µM; in experiment [5], 9 µM; in experiment [6] it was greater than 100 µM. In experiment [7], the GI50 was greater than 100 µM.
With `COc1cc([C@@H]2c3cc4c(cc3[C@H](O)[C@H]3COC(CC(C)=O)[C@H]23)OCO4)cc(OC)c1OC` (stereo not given in full), the GI50 in experiment [1] is 6 µM; in experiment [2], 60 µM; in experiment [3] it was 20 µM; in experiment [4], 60 µM; in experiment [5], 20 µM; in experiment [6], 20 µM. This compound also registered a 50% growth inhibitory concentration (GI50) in experiment [7] of 0.02 µM.
On to `COc1cc([C@@H]2c3cc4c(cc3[C@H](O)[C@H]3COC(OCCO)[C@H]23)OCO4)cc(OC)c1OC` (stereo not given in full), for which the GI50 in experiment [1] was determined as 0.09 µM; in experiment [2] it was 70 µM; in experiment [3] it was 60 µM; in experiment [4] it was 70 µM; in experiment [5], 10 µM; in experiment [6], 20 µM. The same compound returned a GI50 in experiment [7] of 0.01 µM.
Take `COc1cc([C@@H]2c3cc4c(cc3[C@@H](O[C@@H]3O[C@@H]5CO[C@@H](C)O[C@H]5[C@H](O)[C@H]3O)[C@H]3COC(=O)[C@H]23)OCO4)cc(OC)c1O` [ETOPOSIDE]: the GI50 in experiment [1] is less than 0.01 µM; in experiment [2], 25 µM; in experiment [3], less than 0.01 µM; in experiment [4], 90 µM; in experiment [5], 0.9 µM; in experiment [6] it was 2 µM. In experiment [7], this compound registered a GI50 of 8 µM.
For `COc1cc([C@@H]2c3cc4c(cc3[C@H](O)[C@H]3COC(=O)[C@H]23)OCO4)cc(OC)c1OC` [PODOFILOX], the concentration for 50% growth inhibition (GI50) was 0.9 µM in experiment [1]; 0.6 µM in experiment [2]; 0.07 µM in experiment [3]; 2 µM in experiment [4]; 0.7 µM in experiment [5]; 0.04 µM in experiment [6]. This compound registered a GI50 in experiment [7] of 0.08 µM.

Values taken from ChEMBL document CHEMBL1131813, “9-Deoxopodophyllotoxin derivatives as anti-cancer agents” (1999).
